# Assay results: patent US10188718B2, “Vaccines against Streptococcus pneumoniae serotype 4” (MAX-PLANCK-GESELLSCHAFT ZUR FÖRDERUNG DER WISSENSCHAFTEN …, priority 2014, dated 2019)
# Entries after “also recorded” stand apart in the source; their conditions may differ.
# Test system: human reference serum 007sp
# Test: Glycan array, antibody binding from human reference serum 007sp with CPS/CWPS competition
# Details: glycan array competition experiment, serum 007sp (FIG. 5, FIG. 6), 24* compared with 16*
# Experimental: Pyruvated SP4 tetrasaccharide 24* was dissolved at 10 mM in water and diluted to 100 μM and 50 μM in coupling buffer (50 mM sodium phosphate, pH 8.5). Each concentration was spotted in duplicates to CodeLink activated glass slides (Surmodics) alongside a number of related structures and native polysaccharides (see FIG. 4 for printing pattern) using a Scienion S3 microarray printer at 65% relative humidity. The slides were incubated in a humidity saturated chamber overnight. They were washed twice with water and quenched by incubation with 100 mM ethanolamine, 50 mM sodium phosphate pH 9 for one hour at room temperature. They were washed again twice, dried by centrifugation and stored at 4° C. until use.
# Slides were blocked by incubation with 1% BSA-PBS at room temperature, washed twice with PBS and dried by centrifugation. A 64 well incubation gasket was attached to the glass slides.
# Sera (rabbit SP4 typing serum (SSI Diagnostica, Denmark) or human reference serum 007sp (Clin. Vaccine Immunol. 2011 18 (10), 1728)) were diluted in 1% BSA-PBS containing no competitors or native SP4 CPS (capsular polysaccharide) or CWPS (S. pneumoniae cell wall polysaccharide) as competitors. […] It was dried by centrifugation and the fluorescence was read out using s GenePix 4300a fluorescence reader.
smiles,measurement,value
"CC(=O)N[C@@H]1[C@H](O[C@@H]2[C@H](O)[C@H](C)O[C@@H](O[C@H]3[C@@H](O)[C@@H](CO)O[C@H](O[C@@H]4[C@H](O)[C@@H](O)[C@@H](OCCCCCN)O[C@@H]4CO)[C@@H]3NC(C)=O)[C@H]2NC(C)=O)O[C@H](CO)[C@@H](O)[C@@H]1O [compound 16*, N-((2R,3S,4R,5S,6R)-2-(((2S,3S,4S,5R,6S)-3-acetamido-2-(((2R,3R,4R,5R,6R)-3-acetamido-2-(((2R,3R,4R,5R,6S)-6-((5-aminopentyl)oxy)-4,5-dihydroxy-2-(hydroxymethyl)tetrahydro-2H-pyran-3-yl)oxy)-5-hydroxy-6-(hydroxymethyl)tetrahydro-2H-pyran-4-yl)oxy)-5-hydroxy-6-methyltetrahydro-2H-pyran-4-yl)oxy)-4,5-dihydroxy-6-(hydroxymethyl)tetrahydro-2H-pyran-3-yl)acetamide]",inhibition (decline) of signal by native S. pneumoniae serotype 4 CPS,"Compared to unpyruvated tetrasaccharide 16*, the signal for the pyruvated saccharide 24* can be inhibited far more efficiently; also recorded: much stronger for pyruvated tetrasaccharide 24* (spot B) compared with unpyruvated tetrasaccharide 16*"
